Four compounds from US7226925B2, “Compounds, their use and preparation” (Biovitrum AB, priority 2002, dated 2007) can be followed below.

The structures appear in SMILES notation. pEC50, pKi: −log10 of the molar value. Structures can show the parent of a compound that is named as a salt.

For series [1], the target named is T1, human 5-HT2C receptor (Homo sapiens, UniProt P28335).
T1 construct: expressed in transfected cells
T1 sequence (P28335 33-458): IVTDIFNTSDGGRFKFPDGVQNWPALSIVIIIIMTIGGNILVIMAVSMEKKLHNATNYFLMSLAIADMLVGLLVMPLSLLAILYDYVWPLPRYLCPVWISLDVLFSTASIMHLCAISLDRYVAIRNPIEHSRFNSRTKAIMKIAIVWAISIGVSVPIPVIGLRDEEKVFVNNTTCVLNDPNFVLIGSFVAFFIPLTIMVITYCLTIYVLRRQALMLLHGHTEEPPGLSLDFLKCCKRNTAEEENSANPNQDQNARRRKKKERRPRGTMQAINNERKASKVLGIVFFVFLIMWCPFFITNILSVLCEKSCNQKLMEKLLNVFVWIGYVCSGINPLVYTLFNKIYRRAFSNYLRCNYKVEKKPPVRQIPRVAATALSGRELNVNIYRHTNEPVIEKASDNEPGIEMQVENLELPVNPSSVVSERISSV
Nature of the series: In vitro functional assay, intracellular calcium mobilisation in transfected HEK293 cells (FLUO-3). In kind it is cell-based. The conditions noted are these: for pEC50: calcium mobilisation, HEK293 cells; for Efficacy 5-HT2C: maximum response at 1 μM relative to maximum response of 5-HT at 1 μM.
Procedure: The agonist efficacy at the 5-HT2C receptor of the compounds in the Examples was determined by the ability of each compound to mobilise intracellular calcium in transfected HEK293 cells, stably expressing the human 5-HT2C receptor protein, using the calcium-chelating fluorescent dye FLUO-3 (Sigma, St. Louis, Mo., U.S.A.).

In series [2] the target is T2, human 5-HT2A receptor (Homo sapiens, UniProt P28223).
T2 construct: expressed in transfected cells; host or cells: CHO cells
In words: Affinity assay, displacement of 3H-LSD, CHO cell line. The class given is binding. The conditions noted are these: 3H-LSD radioligand, CHO cells. How it is done:
(§1) The binding affinities of the compounds for the human 5-HT2A and 5-HT2B receptors in CHO cell lines were determined using ^3H-labelled lysergic acid diethyl amide (LSD) and 5-HT, respectively, as radioligands. The binding affinities of the compounds for the human 5-HT1A and 5-HT1B receptors in CHO cell lines were determined similarly using ^3H-labelled 8-hydroxy-2-(di-n-propylamino)tetralin (8-OH-DPAT) and 5-HT, respectively, as radioligands.
(In a radioligand displacement assay an active substance lowers the binding of a labelled ligand.)

Series [3] concerns the target T1, human 5-HT2C receptor. Nature of the series: Affinity assay, displacement of 3H-5-HT, membranes of transfected HEK293 cells, Scintillation Proximity Assay. In kind it is binding. The conditions noted are these: 3H-5-HT radioligand.
Procedure: The receptor affinity of compounds in the Examples was determined in competition experiments, where the ability of each compound in serial dilution to displace ^3H-labelled 5-HT, bound to membranes prepared from a transfected HEK293 cell line stably expressing the human 5-HT2C receptor protein, was monitored by Scintillation Proximity Assay technology. Non-specific binding was defined using 5 μM mianserin.
Series [4] concerns the target T2, human 5-HT2A receptor. Nature of the series: In vitro functional assay, intracellular calcium mobilisation in CHO cells. In kind it is cell-based. The conditions noted are these: for pEC50: calcium mobilisation, CHO cells; for Efficacy 5-HT2A: maximum response at 1 μM relative to maximum response of 5-HT at 1 μM. The method, then:
(§2) The ability of the compounds to mobilise intracellular calcium at the 5HT2A and 5-HT2B receptors was determined similarly using CHO cells expressing the human 5-HT2A or human 5-HT2B receptors.
(§3) The maximum functional responses of the compounds, at 1 μM, at the 5-HT2A, 5-HT2B and 5-HT2C receptors are expressed relative to the maximum response of 5-HT (serotonin) at a concentration of 1 μM.
(In general: Calcium assays in cells follow changes in intracellular calcium, usually with a dye or a luminescent sensor.)

The target in series [5] is T3, human 5-HT2B receptor (Homo sapiens, UniProt P41595).
T3 construct: expressed in transfected cells; host or cells: CHO cells
Described as above. The class given is cell-based. Particulars: for pEC50: calcium mobilisation, CHO cells; for Efficacy 5-HT2B: maximum response at 1 μM relative to maximum response of 5-HT at 1 μM. The method, then: as §2, §3

Series [6] deals with T4, human 5-HT1A receptor (Homo sapiens, UniProt P08908).
T4 construct: expressed in transfected cells; host or cells: CHO cell line
T4 sequence (P08908 1-422): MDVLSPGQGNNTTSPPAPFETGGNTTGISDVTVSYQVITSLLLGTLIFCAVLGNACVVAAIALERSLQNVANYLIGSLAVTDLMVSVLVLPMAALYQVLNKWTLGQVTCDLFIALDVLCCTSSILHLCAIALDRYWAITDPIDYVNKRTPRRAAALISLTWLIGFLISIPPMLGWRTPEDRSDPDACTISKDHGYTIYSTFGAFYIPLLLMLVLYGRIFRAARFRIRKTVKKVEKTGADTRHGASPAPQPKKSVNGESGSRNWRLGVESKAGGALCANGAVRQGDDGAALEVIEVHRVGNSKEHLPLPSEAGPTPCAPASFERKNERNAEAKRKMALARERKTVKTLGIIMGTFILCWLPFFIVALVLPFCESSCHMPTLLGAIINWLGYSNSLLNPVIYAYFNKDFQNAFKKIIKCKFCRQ
Nature of the series: Affinity assay, displacement of 3H-8-OH-DPAT, CHO cell line. The class given is binding. Particulars: 3H-8-OH-DPAT radioligand, CHO cells. How it is done:
as §1

Series [7] concerns the target T5, human 5-HT1B receptor (Homo sapiens, UniProt P28222).
T5 construct: expressed in transfected cells; host or cells: CHO cell line
In words: Affinity assay, displacement of 3H-5-HT, CHO cell line. The class given is binding. Particulars: 3H-5-HT radioligand, CHO cells. The method, then: as §1

In series [8] the target is T3, human 5-HT2B receptor. Described as above. In kind it is binding. The conditions noted are these: 3H-5-HT radioligand, CHO cells. The method, then:
as §1

T2 sequence (P28223 whole entry): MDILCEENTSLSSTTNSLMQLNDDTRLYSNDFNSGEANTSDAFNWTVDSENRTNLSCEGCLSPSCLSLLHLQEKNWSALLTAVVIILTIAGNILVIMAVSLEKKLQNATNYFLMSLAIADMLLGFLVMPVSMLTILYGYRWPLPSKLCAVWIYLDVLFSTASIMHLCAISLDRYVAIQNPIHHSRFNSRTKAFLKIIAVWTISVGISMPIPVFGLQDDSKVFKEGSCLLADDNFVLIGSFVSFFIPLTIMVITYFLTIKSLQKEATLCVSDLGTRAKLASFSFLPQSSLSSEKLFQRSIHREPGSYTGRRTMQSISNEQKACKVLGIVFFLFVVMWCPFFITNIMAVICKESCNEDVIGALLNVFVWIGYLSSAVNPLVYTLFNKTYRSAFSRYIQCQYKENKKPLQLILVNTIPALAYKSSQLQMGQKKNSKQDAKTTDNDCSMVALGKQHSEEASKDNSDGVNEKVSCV
T3 sequence (P41595 whole entry): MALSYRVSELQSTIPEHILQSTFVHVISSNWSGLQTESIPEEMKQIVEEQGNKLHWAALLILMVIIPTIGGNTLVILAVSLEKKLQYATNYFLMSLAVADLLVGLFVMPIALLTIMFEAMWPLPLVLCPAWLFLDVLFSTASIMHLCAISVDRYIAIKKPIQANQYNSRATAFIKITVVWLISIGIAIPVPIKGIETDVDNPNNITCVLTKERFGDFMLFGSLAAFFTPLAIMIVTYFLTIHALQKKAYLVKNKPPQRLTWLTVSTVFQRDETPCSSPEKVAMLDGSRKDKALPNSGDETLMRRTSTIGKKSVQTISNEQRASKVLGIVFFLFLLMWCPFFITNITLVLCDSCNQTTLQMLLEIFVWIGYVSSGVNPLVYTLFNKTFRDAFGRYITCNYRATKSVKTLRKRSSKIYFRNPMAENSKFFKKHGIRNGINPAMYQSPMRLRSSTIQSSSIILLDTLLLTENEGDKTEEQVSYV
T5 sequence (P28222 whole entry): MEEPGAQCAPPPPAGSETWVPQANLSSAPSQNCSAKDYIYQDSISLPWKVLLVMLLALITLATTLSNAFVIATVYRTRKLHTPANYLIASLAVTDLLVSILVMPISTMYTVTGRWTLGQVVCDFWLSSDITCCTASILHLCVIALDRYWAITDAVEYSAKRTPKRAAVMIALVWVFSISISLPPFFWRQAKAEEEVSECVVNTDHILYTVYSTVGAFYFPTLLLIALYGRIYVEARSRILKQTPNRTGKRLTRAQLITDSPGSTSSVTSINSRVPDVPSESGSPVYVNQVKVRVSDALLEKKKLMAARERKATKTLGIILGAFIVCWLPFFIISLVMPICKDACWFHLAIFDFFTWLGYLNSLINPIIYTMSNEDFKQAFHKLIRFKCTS

Broadly, the melting point is the temperature, or range, at which the solid turns liquid. On to `C[C@@H]1CNCCN1c1nccnc1OCCOc1cccnc1OCCN(C)C` (as salt: acetate) [Example 1, N,N-Dimethyl-(2-(3-[2-(2-(R)-methyl-3,4,5,6-tetrahydro-2H-[1,2′]bipyrazinyl-3′-yloxy)-ethoxy]-pyridin-2-yloxy)-ethyl)-amine], for which the melting point was 75 °C.
Still for that read-out and setting: then `CC(C)N(CCOc1ncccc1OCCOc1nccnc1N1CCNC[C@H]1C)C(C)C` (as salt: acetate) [Example 2, N,N-Diisopropyl-(2-(3-[2-(2-(R)-methyl-3,4,5,6-tetrahydro-2H-[1,2′]bipyrazinyl-3′-yloxy)-ethoxy]-pyridin-2-yloxy)-ethyl)-amine], with 87 °C.
A word on the pEC50: it is the negative decadic logarithm of the EC50, by convention in mol/L. One may read the pKi as the negative decadic logarithm of the Ki, by convention in mol/L. Higher therefore signals a small Ki. On to `C[C@@H]1CNCCN1c1nccnc1OCCOc1cccnc1OCCN(C)C` [Example 1, N,N-Dimethyl-(2-(3-[2-(2-(R)-methyl-3,4,5,6-tetrahydro-2H-[1,2′]bipyrazinyl-3′-yloxy)-ethoxy]-pyridin-2-yloxy)-ethyl)-amine], for which the pEC50 in series [1] is 8.38; in series [4], 5.92; in series [5], 5.71. In addition, in series [1], the “Efficacy 5-HT2C” value is given as 117%. The negative-log Ki (pKi) is under 6.00 in series [2]; 7.92 in series [3]; 6.10 in [6]; under 6.00 in series [7]; under 6.00 in series [8]. In addition, in series [4], the “Efficacy 5-HT2A” value was 14%. In [5], the “Efficacy 5-HT2B” value came out at 16%.
For `CC(C)N(CCOc1ncccc1OCCOc1nccnc1N1CCNC[C@H]1C)C(C)C` [Example 2, N,N-Diisopropyl-(2-(3-[2-(2-(R)-methyl-3,4,5,6-tetrahydro-2H-[1,2′]bipyrazinyl-3′-yloxy)-ethoxy]-pyridin-2-yloxy)-ethyl)-amine], the negative-log EC50 (pEC50) is 8.41 in [1], 6.59 in series [4] and 6.05 in series [5]. The “Efficacy 5-HT2C” value in series [1] worked out at 111%. Moreover, the negative logarithm of the Ki (pKi) in series [2] was under 6.00; in series [3] it was 8.00; in series [6] it was 6.42; in series [7] it was 6.70; in series [8] it was under 6.00. Besides, the “Efficacy 5-HT2A” value in series [4] came to 40%. Besides, the “Efficacy 5-HT2B” value in [5] is 33%.
